# How the values were obtained:
# hAChE = hAChE (Homo sapiens, UniProt P22303); assay: biochemical; type: biochemical; conditions: for IC50: mean ± SEM of three independent measurements, each in triplicate; for SI for hAChE: selectivity index, ratio hBuChE IC50/hAChE IC50
# Description: (§1) The hAChE and hBuChE activities were determined using a modified method of Ellman with acetylthiocholine iodide (ATChI) and butyrylthiocholine iodide (BuTChI) as substrates, respectively.
# hBuChE = hBuChE (Homo sapiens, UniProt P06276); assay: biochemical; type: biochemical; conditions: mean ± SEM of three independent measurements, each in triplicate; read-out: hBuChE IC50
# Description: as §1
# [1] = system: PANC-1 (pancreas epithelioid carcinoma); assay: WST-1 cytotoxicity assay, PANC-1; type: cell-based; conditions: Homo sapiens, c = 10 μM, 48 h, percent of proliferation of untreated control cells, read-out: Cell proliferation, PANC-1
# Description: (§2) Selected human tumor and non-tumor cell lines {Jurkat (acute T cell leukemia), MOLT-4 (acute lymphoblastic leukemia), A549 (lung carcinoma), HT-29 (colorectal adenocarcinoma), PANC-1 (pancreas epithelioid carcinoma), A2780 (ovarian carcinoma), HeLa (cervix adenocarcinoma), MCF-7 (breast adenocarcinoma), SAOS-2 (osteosarcoma) and MRC-5 (normal lung fibroblasts)} were purchased from either ATCC (Manassas, VA, USA) or Sigma-Aldrich (St. Louis, MO, USA) and cultured according to the provider’s culture method guidelines. […] Cells in the maximum range of either 10 passages for primary cell line (MRC-5), or in the maximum range of 20 passages for cancer cell lines (Jurkat, MOLT-4, A549, HT-29, PANC-1, A2780, HeLa, MCF-7 and SAOS-2) and in an exponential growth phase were used for this study.
# (§3) The WST-1 (Roche, Mannheim, Germany) reagent was used to determine the cytostatic effect of the test compounds. WST-1 is designed for the spectrophotometric quantification of cell proliferation, growth, viability and chemosensitivity in cell populations using a 96-well-plate format (Sigma, St. Louis, MO, USA). The principle of WST-1 is based on photometric detection of the reduction of tetrazolium salt to a colored formazan product. The cells were seeded at a previously established optimal density (30,000 Jurkat, 25,000 MOLT-4, 500 A549, 1500 HT-29, 2000 PANC-1, 5000 A2780, 500 HeLa, 1500 MCF-7, 2000 SAOS-2 and 2000 MRC-5 cells/well) in 100 µL of culture medium, and adherent cells were allowed to reattach overnight. Thereafter, the cells were treated with 100 µL of either corresponding alkaloids or doxorubicin stock solutions to obtain the desired concentrations and incubated in 5% CO2 at 37 °C. WST-1 reagent diluted 4-fold with PBS (50 µL) was added 48 h after treatment. Absorbance was measured after 3 h incubation with WST-1 at 440 nm. The measurements were performed in a Tecan Infinite M200 spectrometer (Tecan Group, Männedorf, Switzerland). All experiments were performed at least three times with triplicate measurements at each drug concentration per experiment. The viability was quantified as described previously according to the following formula: (%) viability = (Asample − Ablank)/(Acontrol − Ablank) × 100, where A is the absorbance of the employed WST-1 formazan measured at 440 nm. The viability of the treated cells was normalized to the viability of cells treated with 0.1% DMSO (Sigma-Aldrich) as a vehicle control.
# [2] = system: A2780 (ovarian carcinoma); assay: WST-1 cytotoxicity assay, A2780; type: cell-based; conditions: Homo sapiens, c = 10 μM, 48 h, percent of proliferation of untreated control cells, read-out: Cell proliferation, A2780
# Description: as §2, §3
# SAOS-2 (osteosarcoma) = assay: WST-1 cytotoxicity assay, SAOS-2; type: cell-based; conditions: Homo sapiens, c = 10 μM, 48 h, percent of proliferation of untreated control cells, read-out: Cell proliferation, SAOS-2
# Description: as §2, §3
# [3] = system: MCF-7 (breast adenocarcinoma); assay: WST-1 cytotoxicity assay, MCF-7; type: cell-based; conditions: Homo sapiens, MCF7; c = 10 μM, 48 h, percent of proliferation of untreated control cells; read-out: Cell proliferation, MCF-7
# Description: as §2, §3
# [4] = system: MOLT-4 (acute lymphoblastic leukemia); assay: WST-1 cytotoxicity assay, MOLT-4; type: cell-based; conditions: Homo sapiens, c = 10 μM, 48 h, percent of proliferation of untreated control cells, read-out: Cell proliferation, MOLT-4
# Description: as §2, §3
# [5] = system: Jurkat (acute T cell leukemia); assay: WST-1 cytotoxicity assay, Jurkat; type: cell-based; conditions: Homo sapiens, c = 10 μM, 48 h, percent of proliferation of untreated control cells
# Description: as §2, §3
# [6] = system: HeLa (cervix adenocarcinoma); assay: WST-1 cytotoxicity assay, HeLa; type: cell-based; conditions: Homo sapiens, c = 10 μM, 48 h, percent of proliferation of untreated control cells, read-out: Cell proliferation, HeLa
# Description: as §2, §3
# [7] = system: MRC-5 (normal lung fibroblasts); assay: WST-1 cytotoxicity assay, MRC-5; type: cell-based; conditions: Homo sapiens, MRC5; c = 10 μM, 48 h, percent of proliferation of untreated control cells; read-out: Cell proliferation, MRC-5
# Description: as §2, §3
# [8] = system: HT-29 (colorectal adenocarcinoma); assay: WST-1 cytotoxicity assay, HT-29; type: cell-based; conditions: Homo sapiens, c = 10 μM, 48 h, percent of proliferation of untreated control cells, read-out: Cell proliferation, HT-29
# Description: as §2, §3
# A549 (lung carcinoma) = assay: WST-1 cytotoxicity assay, A549; type: cell-based; conditions: Homo sapiens, c = 10 μM, 48 h, percent of proliferation of untreated control cells, read-out: Cell proliferation, A549
# Description: as §2, §3
# in vitro = conditions: pig, PAMPA, PAMPA-BBB Permeability (Pe)
# Description: The PAMPA assay was performed as previously described.
# Sequence of hAChE (P22303 32-614): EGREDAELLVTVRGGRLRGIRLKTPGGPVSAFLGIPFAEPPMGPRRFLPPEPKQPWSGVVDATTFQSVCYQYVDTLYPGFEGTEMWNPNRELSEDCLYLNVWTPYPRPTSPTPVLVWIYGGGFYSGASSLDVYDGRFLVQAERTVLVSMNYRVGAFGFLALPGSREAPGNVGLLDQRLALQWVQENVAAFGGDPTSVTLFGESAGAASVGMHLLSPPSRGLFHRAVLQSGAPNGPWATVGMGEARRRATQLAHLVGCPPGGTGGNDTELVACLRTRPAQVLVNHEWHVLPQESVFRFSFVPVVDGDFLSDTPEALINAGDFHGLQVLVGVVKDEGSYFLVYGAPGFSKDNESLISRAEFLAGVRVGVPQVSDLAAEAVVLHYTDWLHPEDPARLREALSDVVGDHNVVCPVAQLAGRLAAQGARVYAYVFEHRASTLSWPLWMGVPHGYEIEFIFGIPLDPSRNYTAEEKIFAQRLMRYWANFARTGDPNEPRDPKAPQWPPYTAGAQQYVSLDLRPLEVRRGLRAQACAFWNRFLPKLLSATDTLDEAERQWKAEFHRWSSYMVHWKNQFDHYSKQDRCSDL
# Sequence of hBuChE (P06276 29-602): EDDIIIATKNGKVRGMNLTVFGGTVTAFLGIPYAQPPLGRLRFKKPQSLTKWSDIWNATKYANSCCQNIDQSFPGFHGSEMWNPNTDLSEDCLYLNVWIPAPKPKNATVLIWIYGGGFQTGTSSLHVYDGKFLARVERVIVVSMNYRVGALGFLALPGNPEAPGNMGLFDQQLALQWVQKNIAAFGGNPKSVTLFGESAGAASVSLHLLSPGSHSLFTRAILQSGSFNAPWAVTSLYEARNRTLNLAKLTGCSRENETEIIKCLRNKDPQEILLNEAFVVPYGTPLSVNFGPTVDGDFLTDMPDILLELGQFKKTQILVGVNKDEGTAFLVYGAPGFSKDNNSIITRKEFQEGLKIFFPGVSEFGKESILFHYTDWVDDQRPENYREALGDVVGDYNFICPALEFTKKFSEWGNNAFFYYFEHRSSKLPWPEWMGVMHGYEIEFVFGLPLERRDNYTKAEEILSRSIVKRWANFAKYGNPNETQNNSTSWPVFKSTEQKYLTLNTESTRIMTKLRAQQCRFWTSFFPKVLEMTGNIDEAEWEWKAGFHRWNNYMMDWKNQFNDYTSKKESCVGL
Structure (SMILES),IC50 (hAChE),SI for hAChE (hAChE),IC50 (hBuChE),activity at 10 µM [1],activity at 10 µM [2],activity at 10 µM (SAOS-2 (osteosarcoma)),activity at 10 µM [3],viability at 10 µM [4],activity at 10 µM [5],activity at 10 µM [6],activity at 10 µM [7],activity at 10 µM [8],activity at 10 µM (A549 (lung carcinoma)),Papp (in vitro)
"COC1C=CC23c4cc5c(cc4CN(CC2OC(=O)c2cccc(Cl)c2)C3C1)OCO5 (centres unmarked) [Compound 1h, 11-O-(3-Chlorobenzoyl)haemanthamine]",85.1 ± 6.4 µM,0.9,80.2 ± 10.2 µM,,,,,,,,,,,
"COc1cccc2c1C(=O)c1c(O)c3c(c(O)c1C2=O)C[C@@](O)(C(=O)CO)C[C@@H]3O[C@H]1C[C@H](N)[C@H](O)[C@H](C)O1 [DOX, Doxorubicin, reference compound]",,,,59 ± 9%,5 ± 1%,73 ± 8%,41 ± 7%,0%,0%,7 ± 10%,40 ± 4%,77 ± 12%,66 ± 16%,
"COC1C=CC23c4cc5c(cc4CN(CC2OC(=O)c2cccc(Br)c2)C3C1)OCO5 (centres unmarked) [Compound 1i, 11-O-(3-Bromobenzoyl)haemanthamine]",112 ± 21 µM,1.1,129 ± 25 µM,108 ± 2%,162 ± 9%,97 ± 10%,105 ± 4%,115 ± 15%,133 ± 10%,93 ± 5%,105 ± 3%,120 ± 4%,122 ± 5%,
"CN(C)CCCN1c2ccccc2Sc2ccccc21 [Promazine, reference compound]",,,,,,,,,,,,,,8.6 ×10⁻⁶ cm/s
"CCC(=O)OC1CN2Cc3cc4c(cc3C13C=CC(OC)CC23)OCO4 (centres unmarked) [Compound 1b, 11-O-Propionylhaemanthamine]",> 500 µM,< 0.9,437 ± 38 µM,70 ± 13%,104 ± 3%,96 ± 16%,85 ± 7%,97 ± 8%,104 ± 3%,69 ± 11%,102 ± 13%,79 ± 15%,84 ± 3%,
"CCCCCC(=O)OC1CN2Cc3cc4c(cc3C13C=CC(OC)CC23)OCO4 (centres unmarked) [Compound 1e, 11-O-Hexanoylhaemanthamine]",> 500 µM,< 0.5,273 ± 18 µM,96 ± 4%,106 ± 5%,96 ± 8%,95 ± 4%,97 ± 3%,100 ± 7%,98 ± 3%,96 ± 4%,100 ± 3%,105 ± 9%,
"COc1cccc(C(=O)OC2CN3Cc4cc5c(cc4C24C=CC(OC)CC34)OCO5)c1 (centres unmarked) [Compound 1k, 11-O-(3-Methoxybenzoyl)haemanthamine]",180 ± 17 µM,0.4,75.5 ± 12.5 µM,88 ± 5%,108 ± 7%,89 ± 15%,100 ± 2%,94 ± 18%,83 ± 1%,84 ± 12%,92 ± 1%,93 ± 3%,102 ± 5%,
"COC1C=CC23c4cc5c(cc4CN(CC2OC(C)=O)C3C1)OCO5 (centres unmarked) [Compound 1a, 11-O-Acetylhaemanthamine]",> 500 µM,,> 500 µM,114 ± 4%,107 ± 17%,88 ± 6%,97 ± 19%,106 ± 9%,100 ± 13%,83 ± 6%,113 ± 12%,97 ± 10%,95 ± 9%,
"COC1C=CC23c4cc5c(cc4CN(CC2OC(=O)C(C)C)C3C1)OCO5 (centres unmarked) [Compound 1c, 11-O-Isobutanoylhaemanthamine]",> 500 µM,< 0.4,203 ± 8 µM,85 ± 13%,123 ± 9%,85 ± 15%,103 ± 7%,99 ± 8%,110 ± 3%,74 ± 8%,95 ± 7%,82 ± 17%,84 ± 3%,
"CCCC(=O)OC1CN2Cc3cc4c(cc3C13C=CC(OC)CC23)OCO4 (centres unmarked) [Compound 1f, 11-O-Butanoylhaemanthamine]",> 500 µM,< 0.3,140 ± 21 µM,99 ± 6%,104 ± 8%,104 ± 7%,96 ± 13%,101 ± 18%,90 ± 12%,88 ± 3%,87 ± 14%,101 ± 3%,106 ± 12%,
"CCCCC(=O)OC1CN2Cc3cc4c(cc3C13C=CC(OC)CC23)OCO4 (centres unmarked) [Compound 1d, 11-O-Pentanoylhaemanthamine]",> 500 µM,,> 500 µM,88 ± 3%,99 ± 2%,88 ± 6%,93 ± 5%,96 ± 1%,92 ± 1%,93 ± 6%,89 ± 3%,94 ± 4%,99 ± 7%,

# Reference: publication PMC6480460, “Derivatives of the β-Crinane Amaryllidaceae Alkaloid Haemanthamine as Multi-Target Directed Ligands for Alzheimer’s Disease” (Molecules, 2019)
